Structures can show the parent of a compound that is named as a salt.
These compounds were tested against T1, human HSD-1 (recombinant HSD-1) (Homo sapiens, UniProt P28845) (assay: HSD-1 activity inhibitory action in vitro (SPA, conversion of cortisone to cortisol)). Conditions: recombinant human HSD-1 expressed using baculovirus system; 10 nM 3H cortisone, 500 μM NADPH; room temperature 90 to 120 min; read-out: hHSD1 (IC50 (nM)).
T1 construct: made in house
Assay type: biochemical

T1 sequence (P28845 whole entry): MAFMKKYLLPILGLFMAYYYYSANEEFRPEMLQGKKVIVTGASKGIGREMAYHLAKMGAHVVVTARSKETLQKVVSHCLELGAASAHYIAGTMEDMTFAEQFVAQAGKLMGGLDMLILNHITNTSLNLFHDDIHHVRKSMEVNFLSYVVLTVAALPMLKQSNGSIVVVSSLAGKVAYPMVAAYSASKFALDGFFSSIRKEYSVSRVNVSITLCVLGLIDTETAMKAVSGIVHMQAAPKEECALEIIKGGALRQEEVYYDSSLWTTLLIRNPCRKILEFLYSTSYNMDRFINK

IC50, < 30 nM:
O=C(NCC(F)(F)F)N1CCC(n2ncc(C(=O)N3CC[C@@H](c4ccccc4C(F)(F)F)C3)c2C2CC2)CC1 [Example 47, 1-{5-cyclopropyl-1-[1-(2,2,2-trifluoroethylcarbamoyl)piperidin-4-yl]-1H-pyrazole-4-carbonyl}-[(S)-3-(2-trifluoromethylphenyl)]pyrrolidine]
CS(=O)(=O)Nc1ccc(N2CCC(n3ncc(C(=O)N4CCC(c5ccccc5C(F)(F)F)C4)c3C3CC3)CC2)cc1 (stereo not shown) [Example 171, 1-{5-cyclopropyl-1-[1-(4-methanesulfonylaminophenyl)piperidin-4-yl]-1H-pyrazole-4-carbonyl}-3-(2-trifluoromethylphenyl)pyrrolidine]
CC(C)(CO)C(=O)N1CCC(n2ncc(C(=O)N3CC[C@@H](c4ccccc4C(F)(F)F)C3)c2C2CC2)CC1 [Example 76, 1-{5-cyclopropyl-1-[1-(3-hydroxy-2,2-dimethylpropionyl)piperidin-4-yl]-1H-pyrazole-4-carbonyl}-[(S)-3-(2-trifluoromethylphenyl)]pyrrolidine]
COC(=O)c1ccccc1C1CCN(C(=O)c2cnn(C3CCN(c4ncccn4)CC3)c2C2(C)CC2)C1 (stereo not shown) [Example 179, methyl 2-{1-[5-(1-methylcyclopropyl)-1-(1-pyrimidin-2-ylpiperidin-4-yl)-1H-pyrazole-4-carbonyl]pyrrolidin-3-yl}benzoate]
CC(C)(CN1CCC(n2ncc(C(=O)N3CC[C@@H](c4ccccc4C(F)(F)F)C3)c2C2CC2)CC1)C(N)=O [Example 105, 1-{1-[1-(2-carbamoyl-2-methylpropyl)piperidin-4-yl]-5-cyclopropyl-1H-pyrazole-4-carbonyl}-[(S)-3-(2-trifluoromethylphenyl)]pyrrolidine hydrochloride]
NC(=O)C1CCN(C(=O)N2CCC(n3ncc(C(=O)N4CC[C@@H](c5ccccc5C(F)(F)F)C4)c3C3CC3)CC2)CC1 [Example 33, 1-{1-[1-(4-carbamoylpiperidine-1-carbonyl)piperidin-4-yl]-5-cyclopropyl-1H-pyrazole-4-carbonyl}-[(S)-3-(2-trifluoromethylphenyl)]pyrrolidine]
NC(=O)c1ccc(N2CCC(n3ncc(C(=O)N4CCC(c5ccccc5C(F)(F)F)C4)c3C3CC3)CC2)nc1 (stereo not shown) [Example 167, 1-{1-[1-(5-carbamoyl-pyridin-2-yl)piperidin-4-yl]-5-cyclopropyl-1H-pyrazole-4-carbonyl}-3-(2-trifluoromethylphenyl)pyrrolidine]
O=C(c1cnn(C2CCN(c3ccc(CO)cc3)CC2)c1C1CC1)N1CCC(c2ccccc2C(F)(F)F)C1 (stereo not shown) [Example 166, 1-{5-cyclopropyl-1-[1-(4-hydroxymethylphenyl)piperidin-4-yl]-1H-pyrazole-4-carbonyl}-3-(2-trifluoromethylphenyl)pyrrolidine]
O=C(OCCN1CCCCC1)N1CCC(n2ncc(C(=O)N3CC[C@@H](c4ccccc4C(F)(F)F)C3)c2C2CC2)CC1 [Example 60, 1-{5-cyclopropyl-1-[1-(2-piperidin-1-yl-ethoxycarbonyl)piperidin-4-yl]-1H-pyrazole-4-carbonyl}-[(S)-3-(2-trifluoromethylphenyl)]pyrrolidine hydrochloride]
O=C(NCCN1CCCCC1)N1CCC(n2ncc(C(=O)N3CC[C@@H](c4ccccc4C(F)(F)F)C3)c2C2CC2)CC1 [Example 17, 1-{5-cyclopropyl-1-[1-(2-piperidin-1-yl-ethylcarbamoyl)piperidin-4-yl]-1H-pyrazole-4-carbonyl}-[(S)-3-(2-trifluoromethylphenyl)]pyrrolidine hydrochloride]
O=C(c1cnn(C2CCN(C(=O)N3CCC(CO)CC3)CC2)c1C1CC1)N1CC[C@@H](c2ccccc2C(F)(F)F)C1 [Example 24, 1-{5-cyclopropyl-1-[1-(4-hydroxymethylpiperidine-1-carbonyl)piperidin-4-yl]-1H-pyrazole-4-carbonyl}-[(S)-3-(2-trifluoromethylphenyl)]pyrrolidine]
CC1(c2c(C(=O)N3CCC(CO)(c4cc(F)cc(F)c4)C3)cnn2C2CCN(c3ncccn3)CC2)CC1 (stereo not shown) [Example 186, 3-(3,5-difluorophenyl)-3-hydroxymethyl-1-{5-(1-methylcyclopropyl)-1-[1-(pyrimidin-2-yl)piperidin-4-yl]-1H-pyrazole-4-carbonyl}pyrrolidine hydrochloride]
O=C(c1cnn(C2CCN(C(=O)N3CCC[C@H]3CO)CC2)c1C1CC1)N1CC[C@@H](c2ccccc2C(F)(F)F)C1 [Example 27, 1-(5-cyclopropyl-1-{1-[(S)-2-hydroxymethylpyrrolidine-1-carbonyl]piperidin-4-yl}-1H-pyrazole-4-carbonyl)-[(S)-3-(2-trifluoromethylphenyl)]pyrrolidine]

Source: patent US20100010219A1, “METHOD FOR PRODUCING PYRROLIDINE COMPOUND” (JAPAN TOBACCO INC., priority 2006, published 2010)
